Reference: PubChem BioAssay AID248 (DTP/NCI, 2004)
Values joined by “and” are separate entries in the source; they are usually repeats but may differ in a detail not shown here. Identical values can stand only once. Inconclusive results and toxic doses are left out. Rule as the data show it: active = T/C of 150% or more; inactive = T/C below 125%.

System: L1210 leukemia ip in BDF1 mice, survival T/C
Assay: NCI In Vivo Anticancer Drug Screen. Data for tumor model L1210 Leukemia (intraperitoneal) in B6D2F1 (BDF1) mice
Conditions: endpoint: mean survival time, higher = longer survival
Outline: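 Antitumor effect is assessed in tumor-bearing animals. Survival in the compound arm is compared with a vehicle-dosed control arm and expressed as their quotient.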

[1] = dose: 100.0 mg/kg/injection, schedule: Q04DX003 (ip), vehicle: saline with Tween-80
[2] = dose: 200.0 mg/kg/injection, schedule: Q04DX003 (ip), vehicle: saline with Tween-80
[3] = dose: 100.0 mg/kg/injection, schedule: Q01DX009 (ip), vehicle: saline with Tween-80
[4] = dose: 100.0 mg/kg/injection, schedule: Q01DX001 (ip), vehicle: carboxymethylcellulose (CMC)
[5] = dose: 200.0 mg/kg/injection, schedule: Q01DX001 (ip), vehicle: carboxymethylcellulose (CMC)
[6] = dose: 400.0 mg/kg/injection, schedule: Q01DX001 (ip), vehicle: carboxymethylcellulose (CMC)
[7] = dose: 25.0 mg/kg/injection, schedule: Q01DX009 (ip), vehicle: saline
[8] = dose: 100.0 mg/kg/injection, schedule: Q04DX002 (ip), vehicle: Klucel (hydroxypropylcellulose) (HPC)
[9] = dose: 200.0 mg/kg/injection, schedule: Q04DX002 (ip), vehicle: Klucel (hydroxypropylcellulose) (HPC)
[10] = dose: 400.0 mg/kg/injection, schedule: Q04DX002 (ip), vehicle: Klucel (hydroxypropylcellulose) (HPC)

Measured: T/C

NC(=O)n1cncn1
inactive: dose: 100.0 mg/kg/injection, schedule: Q01DX001 (ip), vehicle: saline 90 % of control | dose: 100.0 mg/kg/injection, schedule: Q01DX009 (ip), vehicle: acetone 89 % of control | dose: 200.0 mg/kg/injection, schedule: Q01DX001 (ip), vehicle: saline 107 % of control | dose: 200.0 mg/kg/injection, schedule: Q01DX009 (ip), vehicle: acetone 100 % of control | dose: 400.0 mg/kg/injection, schedule: Q01DX001 (ip), vehicle: saline 100 % of control | dose: 400.0 mg/kg/injection, schedule: Q01DX009 (ip), vehicle: acetone 91 % of control

CCNC(=O)Nc1ccc(C(=O)O)c(O)c1 (tested in a mixture with another compound)
inactive: [1] 97 % of control | dose: 100.0 mg/kg/injection, schedule: Q04DX003 (sc), vehicle: olive oil, sesame oil, peanut oil 97 % of control | [2] 92 % of control | dose: 200.0 mg/kg/injection, schedule: Q04DX003 (sc), vehicle: olive oil, sesame oil, peanut oil 102 % of control | dose: 400.0 mg/kg/injection, schedule: Q04DX003 (ip), vehicle: saline with Tween-80 102 % of control | dose: 400.0 mg/kg/injection, schedule: Q04DX003 (sc), vehicle: olive oil, sesame oil, peanut oil 97 % of control

CCOc1ccccc1NC(=O)Oc1ccc(-c2ccccc2)cc1
inactive: [3] 98 % of control | dose: 200.0 mg/kg/injection, schedule: Q01DX009 (ip), vehicle: saline with Tween-80 100 % of control | dose: 400.0 mg/kg/injection, schedule: Q01DX009 (ip), vehicle: saline with Tween-80 93 % of control

COc1cc(F)cc([N+](=O)[O-])c1
inactive: [4] 95 % of control | [5] 97 % of control | [6] 97 % of control

O=C1CCC(c2ccccc2)(C2CCN(Cc3ccc(F)cc3)CC2)C(=O)N1 (configuration not stated)
inactive: dose: 6.25 mg/kg/injection, schedule: Q01DX009 (ip), vehicle: saline 97 % of control | dose: 12.5 mg/kg/injection, schedule: Q01DX009 (ip), vehicle: saline 102 % of control | [7] 102 % of control

CC(=O)OC(CC(O)(C(F)(F)F)C(F)(F)F)C(C)(C)C (configuration not stated)
inactive: [7] 104 % of control | dose: 50.0 mg/kg/injection, schedule: Q01DX009 (ip), vehicle: saline 102 % of control | [1] 98 % of control

COc1ccc(NC(=O)c2ccc(C(=O)Nc3ccc(OC)cc3OC)cc2)c(OC)c1
inactive: [8] 90 % of control | [9] 93 % of control and 102 % of control | [10] 93 % of control and 91 % of control

CS(=O)(=O)Oc1c(Cl)cc(Cl)c2cccnc12
inactive: [4] 102 % of control | [5] 102 % of control | [6] 111 % of control

CCCCCCCCCCC(O)CN1CCN(c2ccc(C)cc2)CC1 (configuration not stated)
inactive: dose: 12.5 mg/kg/injection, schedule: Q01DX009 (ip), vehicle: Klucel (hydroxypropylcellulose) (HPC) 90 % of control | dose: 25.0 mg/kg/injection, schedule: Q01DX009 (ip), vehicle: Klucel (hydroxypropylcellulose) (HPC) 90 % of control | dose: 50.0 mg/kg/injection, schedule: Q01DX009 (ip), vehicle: Klucel (hydroxypropylcellulose) (HPC) 89 % of control | dose: 100.0 mg/kg/injection, schedule: Q01DX009 (ip), vehicle: Klucel (hydroxypropylcellulose) (HPC) 94 % of control | dose: 200.0 mg/kg/injection, schedule: Q01DX009 (ip), vehicle: Klucel (hydroxypropylcellulose) (HPC) 101 % of control

O=[N+]([O-])c1ccc(/C=N/c2ncc(Br)s2)o1
inactive: dose: 50.0 mg/kg/injection, schedule: Q01DX009 (ip), vehicle: saline with Tween-80 102 % of control | [3] 98 % of control | [1] 111 % of control | [2] 111 % of control

O=C(O)c1cc(=O)n2c3c(cccc13)CCC2
inactive: dose: 50.0 mg/kg/injection, schedule: Q04DX003 (ip), vehicle: saline with Tween-80 101 % of control | [1] 104 % of control | [2] 90 % of control

COC(=O)c1ccc(OC)c(-c2cc(OC)ccc2C(=O)OC)c1
inactive: [8] 112 % of control | [9] 101 % of control | [10] 104 % of control

CCCCc1ccc(O)c(O)c1O
inactive: dose: 50.0 mg/kg/injection, schedule: Q01DX001 (sc), vehicle: olive oil, sesame oil, peanut oil 117 % of control | dose: 100.0 mg/kg/injection, schedule: Q01DX001 (sc), vehicle: olive oil, sesame oil, peanut oil 101 % of control and 106 % of control | dose: 200.0 mg/kg/injection, schedule: Q01DX001 (sc), vehicle: olive oil, sesame oil, peanut oil 101 % of control and 105 % of control | dose: 400.0 mg/kg/injection, schedule: Q01DX001 (sc), vehicle: olive oil, sesame oil, peanut oil 108 % of control

Nc1nc2nc(N=Nc3ccc(S(=O)(=O)N(CCCl)CCCl)cc3)[nH]c2c(=O)[nH]1
inactive: dose: 100.0 mg/kg/injection, schedule: Q04DX003 (ip), vehicle: Klucel (hydroxypropylcellulose) (HPC) 93 % of control | dose: 200.0 mg/kg/injection, schedule: Q04DX003 (ip), vehicle: Klucel (hydroxypropylcellulose) (HPC) 87 % of control | dose: 400.0 mg/kg/injection, schedule: Q04DX003 (ip), vehicle: Klucel (hydroxypropylcellulose) (HPC) 96 % of control
